Measured values as given in patent publication US20210246122A1, “Triazine Compounds and Uses Thereof” (Aduro Biotech, Inc., priority 2018, published 2021).

Key:
[1] = target: T1, Human cGAS amino acids 155-522 (Homo sapiens, UniProt Q8N884); test: cGAS activity assay (DNA-activated cGAS, remaining ATP measured by Kinase-Glo Max luciferase assay); format: biochemical; conditions: 300 nM purified cGAS, 1 μM dsDNA, 250 μM ATP, 100 μM GTP, 37° C. for 1.25 hours
T1 construct: hexahistidine tag (N, cleaved yes); made in house; host or cells: E. coli BL21 DE3 Rosetta 2
Description: IC50 values were determined as follows:
Human cGAS sequence encoding amino acids 155-522 was cloned into a pET (EMD Millipore) based expression plasmid. The resulting construct contained a tandem N-terminal hexahistidine tag, maltose binding protein fusion followed by a tobacco etch virus protease cleavable linker preceding cGAS amino acids 155-522.
Construct sequence: Amino acids 155-522, Human cGAS
Protein was expressed and purified from E. coli BL21 DE3 Rosetta 2 (EMD Millipore) cells using standard techniques. Cells were grown in 2× yeast extract tryptone medium and expression was initiated via the addition of isopropyl β-D-1-thiogalactopyranoside. Expression proceeded overnight at 18° C. Cells were harvested by centrifugation and subsequently lysed via sonication. Insoluble fraction was removed by centrifugation. Maltose binding protein (MBP) fusion proteins were purified on a dextrin sepharose column (GE Healthcare) and the MBP tag was removed using tobacco etch virus protease overnight during dialysis. Protein was further purified on a heparin column (GE Healthcare) and eluted using a NaCl gradient. Column fraction were pooled and further purified on a Superdex 75 gel filtration column (GE Healthcare). Protein was quantified using 280 nm absorbance. Protein was then flash frozen in liquid nitrogen and stored at −80° C. until use.
Potential antagonists were diluted in 100% dimethyl sulfoxide and added to the reaction. Final dimethyl sulfoxide concentration was 5%. The compounds were tested from 1 μM with either 3- or 4-fold serial dilutions down to 0.000051 or 0.000004 μM respectively.
Two complementary DNA oligos (IDT DNA) were annealed by slow cooling from 95° C. The resulting double stranded DNA was used to activate cGAS.
Reactions were performed at 37° C. for 1.25 hours. Reaction buffer: 20 mM Tris HCl pH 9, 100 mM NaCl, 5 mM MgCl2, 0.1 mg/ml bovine gamma globulin, 250 μM adenosine triphosphate, 100 μM guanosine triphosphate, 0.5 mM Tris(2-carboxyethyl)phosphine hydrochloride, 1 μM double stranded DNA and 300 nM purified cGAS protein.
Reactions were stopped and ATP levels in the reaction were measured using a luciferase based assay. Promega Kinase-Glo Max Assay. Luminescence was measured on a plate reader (Molecular Devices). Values were normalized to control wells lacking compound.

[2] = tested on: cGAS/STING pathway; test: THP1 cell-based cGAS/STING pathway activity assay (luciferase reporter linked to IRF-3 activation); conditions: Homo sapiens, THP-1; THP1 cells, IRF-3 linked luciferase reporter
Description: A cellular assay can be used to assess the compounds of the invention for their ability to inhibit the cGAS/STING pathway. Cells that express a luciferase-based reporter that is linked to IRF-3 activation are used to determine response as a function of compound concentration. Such an assay is described in Vincent et al., Nature Communications 2017, 8(1):750, doi: 10.1038/s41467-017-00833-9. Compounds of the invention were assessed using similar assay methods in a THP1 cell assay to generate IC50 values as provided in the following Table 8. In this table, activity level “A” indicates an IC50 value less than 20 μM, “B” indicates an IC50 value between 20 and 100 μM, and “C” indicates an IC50 value above the upper limit of the assay (100 μM), or where an IC50 value could not be generated from the data.

T1 sequence (Q8N884 157-522): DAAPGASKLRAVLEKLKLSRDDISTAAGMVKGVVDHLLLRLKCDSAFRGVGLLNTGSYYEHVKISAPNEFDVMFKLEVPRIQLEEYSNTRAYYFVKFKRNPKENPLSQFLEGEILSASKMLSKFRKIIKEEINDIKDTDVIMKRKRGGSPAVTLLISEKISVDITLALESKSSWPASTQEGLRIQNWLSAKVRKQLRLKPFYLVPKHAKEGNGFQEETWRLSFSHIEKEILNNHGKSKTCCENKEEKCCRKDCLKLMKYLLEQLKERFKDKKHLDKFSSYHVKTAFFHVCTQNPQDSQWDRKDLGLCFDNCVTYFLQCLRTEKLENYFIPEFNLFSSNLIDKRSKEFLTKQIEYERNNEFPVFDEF

Row | IC50 [1] [µM] | IC50 [2] [µM] | SMILES
1 | < 20 | > 100 | CNC(=O)[C@H](Cc1ccc(C#N)cc1)Nc1nc(NCc2nc3cc(F)ccc3[nH]2)nc(Nc2cccc(CN3CCN(C(=O)c4nccnc4O)CC3)c2)n1 [TA1024, (S)-3-(4-cyanophenyl)-2-((4-(((5-fluoro-1H-benzo[d]imidazol-2-yl)methyl)amino)-6-((3-((4-(3-hydroxypyrazine-2-carbonyl)piperazin-1-yl)methyl)phenyl)amino)-1,3,5-triazin-2-yl)amino)-N-methylpropanamide]
2 | < 20 | > 100 | COC(=O)[C@H](Cc1ccc(C#N)cc1)Nc1nc(Nc2cccc(CN3CCN(C(=O)c4nccnc4O)CC3)c2)nc(N(C)CCc2nc3ccc(OC)cc3[nH]2)n1 [TA1053, methyl (S)-3-(4-cyanophenyl)-2-((4-((3-((4-(3-hydroxypyrazine-2-carbonyl)piperazin-1-yl)methyl)phenyl)amino)-6-((2-(6-methoxy-1H-benzo[d]imidazol-2-yl)ethyl)(methyl)amino)-1,3,5-triazin-2-yl)amino)propanoate]
3 | < 20 | > 100 | COC(=O)[C@H](Cc1ccc(C#N)cc1)Nc1nc(NCc2nc3cc(Cl)ccc3[nH]2)nc(Nc2cccc(CN3CCN(C(=O)c4c[nH]nn4)CC3)c2)n1 [TA1061, methyl (S)-2-((4-((3-((4-(1H-1,2,3-triazole-4-carbonyl)piperazin-1-yl)methyl)phenyl)amino)-6-(((5-chloro-1H-benzo[d]imidazol-2-yl)methyl)amino)-1,3,5-triazin-2-yl)amino)-3-(4-cyanophenyl)propanoate]
4 | < 20 | > 100 | COC(=O)[C@H](Cc1ccc(C#N)cc1)Nc1nc(NCc2nc3cc(F)ccc3[nH]2)nc(Nc2cccc(CN3CCN(C(=O)c4nccnc4O)CC3)c2)n1 [TA1020, methyl (S)-3-(4-cyanophenyl)-2-((4-(((5-fluoro-1H-benzo[d]imidazol-2-yl)methyl)amino)-6-((3-((4-(3-hydroxypyrazine-2-carbonyl)piperazin-1-yl)methyl)phenyl)amino)-1,3,5-triazin-2-yl)amino)propanoate]
5 | < 20 | > 100 | COCCOCCNC(=O)[C@H](Cc1ccc(C#N)cc1)Nc1nc(NCc2nc3cc(F)ccc3[nH]2)nc(Nc2cccc(CN3CCN(C(=O)c4nccnc4O)CC3)c2)n1 [TA1025, (S)-3-(4-cyanophenyl)-2-((4-(((5-fluoro-1H-benzo[d]imidazol-2-yl)methyl)amino)-6-((3-((4-(3-hydroxypyrazine-2-carbonyl)piperazin-1-yl)methyl)phenyl)amino)-1,3,5-triazin-2-yl)amino)-N-(2-(2-methoxyethoxy)ethyl)propanamide]
6 | < 20 | > 100 | COC(=O)[C@H](Cc1ccc(C#N)cc1)Nc1nc(NCc2nc3cc(Cl)ccc3[nH]2)nc(Nc2cccc(CN3CCN(C(=O)c4nccnc4O)CC3)c2)n1 [TA1059, methyl (S)-2-((4-(((5-chloro-1H-benzo[d]imidazol-2-yl)methyl)amino)-6-((3-((4-(3-hydroxypyrazine-2-carbonyl)piperazin-1-yl)methyl)phenyl)amino)-1,3,5-triazin-2-yl)amino)-3-(4-cyanophenyl)propanoate]
7 | > 250 | – | Cc1cc2nc(CN(C)c3nc(Nc4cccc(CN5CCNCC5)c4)nc(N[C@@H](Cc4ccc(C#N)cc4)C(=O)N(C)C)n3)[nH]c2cc1C [TA1014, (S)-3-(4-cyanophenyl)-2-((4-(((5,6-dimethyl-1H-benzo[d]imidazol-2-yl)methyl)(methyl)amino)-6-((3-(piperazin-1-ylmethyl)phenyl)amino)-1,3,5-triazin-2-yl)amino)-N,N-dimethylpropanamide]
8 | > 250 | – | COC(=O)[C@H](Cc1ccc(C#N)cc1)Nc1nc(Nc2cccc(CN3CCN(C(=O)[C@@H]4CCCO4)CC3)c2)nc(N(C)CCc2nc3ccc(OC)cc3[nH]2)n1 [TA1056, methyl (S)-3-(4-cyanophenyl)-2-((4-((2-(6-methoxy-1H-benzo[d]imidazol-2-yl)ethyl)(methyl)amino)-6-((3-((4-((S)-tetrahydrofuran-2-carbonyl)piperazin-1-yl)methyl)phenyl)amino)-1,3,5-triazin-2-yl)amino)propanoate]
9 | 20 to 250 | – | COC(=O)[C@H](Cc1ccc(C#N)cc1)Nc1nc(NCc2ccccc2)nc(Nc2cccc(CN3CCN(C(=O)c4nccnc4O)CC3)c2)n1 [TA1050, methyl (S)-2-((4-(benzylamino)-6-((3-((4-(3-hydroxypyrazine-2-carbonyl)piperazin-1-yl)methyl)phenyl)amino)-1,3,5-triazin-2-yl)amino)-3-(4-cyanophenyl)propanoate]
10 | > 250 | – | Cc1cc2nc(CN(C)c3nc(Nc4cccc(CN5CCN(C(=O)c6cc7[nH]cnc7cc6C)CC5)c4)nc(N[C@@H](Cc4ccc(C#N)cc4)C(=O)N(C)C)n3)[nH]c2cc1C [TA1015, (S)-3-(4-cyanophenyl)-2-((4-(((5,6-dimethyl-1H-benzo[d]imidazol-2-yl)methyl)(methyl)amino)-6-((3-((4-(5-methyl-1H-benzo[d]imidazole-6-carbonyl)piperazin-1-yl)methyl)phenyl)amino)-1,3,5-triazin-2-yl)amino)-N,N-dimethylpropanamide]
11 | > 250 | – | COC(=O)[C@H](Cc1ccc(C#N)cc1)Nc1nc(Cl)nc(Nc2cccc(CN3CCN(C(=O)OC(C)(C)C)CC3)c2)n1 [TA1002, tert-butyl (S)-4-(3-((4-chloro-6-((3-(4-cyanophenyl)-1-methoxy-1-oxopropan-2-yl)amino)-1,3,5-triazin-2-yl)amino)benzyl)piperazine-1-carboxylate]
12 | 20 to 250 | – | COC(=O)[C@H](Cc1ccc(C#N)cc1)Nc1nc(NCc2nc3cc(Cl)ccc3[nH]2)nc(Nc2cccc(CN3CCN(C=O)CC3)c2)n1 [TA1062, methyl (S)-2-((4-(((5-chloro-1H-benzo[d]imidazol-2-yl)methyl)amino)-6-((3-((4-formylpiperazin-1-yl)methyl)phenyl)amino)-1,3,5-triazin-2-yl)amino)-3-(4-cyanophenyl)propanoate]
13 | > 250 | – | COC(=O)[C@@H](Cc1ccc(C#N)cc1)Nc1nc(NCc2nc3cc(F)ccc3[nH]2)nc(Nc2cccc(CN3CCNCC3)c2)n1 [TA1019, methyl (R)-3-(4-cyanophenyl)-2-((4-(((5-fluoro-1H-benzo[d]imidazol-2-yl)methyl)amino)-6-((3-(piperazin-1-ylmethyl)phenyl)amino)-1,3,5-triazin-2-yl)amino)propanoate]
14 | > 250 | – | COC(=O)[C@H](Cc1ccc(C#N)cc1)Nc1ncnc(Nc2cccc(CN3CCN(C(=O)c4nccnc4O)CC3)c2)n1 [TA1026, methyl (S)-3-(4-cyanophenyl)-2-((4-((3-((4-(3-hydroxypyrazine-2-carbonyl)piperazin-1-yl)methyl)phenyl)amino)-1,3,5-triazin-2-yl)amino)propanoate]
15 | > 250 | – | COC(=O)[C@H](Cc1ccc(C#N)cc1)Nc1nc(Nc2cccc(CN3CCN(C(=O)c4nccnc4O)CC3)c2)nc(OC)n1 [TA1074, methyl (S)-3-(4-cyanophenyl)-2-((4-((3-((4-(3-hydroxypyrazine-2-carbonyl)piperazin-1-yl)methyl)phenyl)amino)-6-methoxy-1,3,5-triazin-2-yl)amino)propanoate]
16 | 20 to 250 | – | CN(C)C(=O)[C@H](Cc1ccc(C#N)cc1)Nc1nc(NCc2nc3cc(F)ccc3[nH]2)nc(Nc2cccc(CN3CCN(C=O)CC3)c2)n1 [TA1016, (S)-3-(4-cyanophenyl)-2-((4-(((5-fluoro-1H-benzo[d]imidazol-2-yl)methyl)amino)-6-((3-((4-formylpiperazin-1-yl)methyl)phenyl)amino)-1,3,5-triazin-2-yl)amino)-N,N-dimethylpropanamide]
17 | > 250 | – | COC(=O)[C@H](Cc1ccccc1)Nc1nc(NCc2nc3cc(F)ccc3[nH]2)nc(Nc2cccc(CN3CCNCC3)c2)n1 [TA1064, methyl (4-(((5-fluoro-1H-benzo[d]imidazol-2-yl)methyl)amino)-6-((3-(piperazin-1-ylmethyl)phenyl)amino)-1,3,5-triazin-2-yl)phenylalaninate]
